System: Wistar rats
Experiment: Neointima formation after balloon catheter vessel injury of the carotid artery in rats
Format: in vivo
Procedure: The effects on neointima formation was assessed after inducing vessel injury in rats with a balloon catheter. Neointima formation is an important part in the process of restenosis. Adult mate Wistar rats (250-260 g) were housed under standard conditions and were fed with commercial rat chow and water ad libitum. During the experiment D-myo-inositol-1,2,6-trisphosphate (IP3) was administered via subcutaneously operated osmotic minipumps with a dose level of 1 mg/kg/hr. A control group received saline solution by osmotic minipumps. The animals were anaesthetised with an intraperitoneal injection of ketamine, 100 mg/kg, (MTC Pharmaceuticals, Cambridge, Ontario, Canada) and xylazine, 10 mg/kg (Bayer lnc., Etobicoke, Ontario, Canada). Using a dissecting microscope, the left carotid artery was exposed on the ventral side of the neck via a midline incision. The bifurcation of the carotid artery was located and two ligatures were placed around the external carotid artery, which was then tied off with the distal ligature. After temporarily occluding the internal carotid artery with a vascular clamp, a small incision was made between the two ligatures placed around the external carotid artery to introduce the endothelial denudation device, an inflated […] Fogarty embolectomy catheter (Baxter Healthcare, Buckinghamshire, UK). […]

SMILES | Reduction of neointima formation (vs saline control, 1 mg/kg/hr via subcutaneous osmotic minipumps, 14 days post-operatively) [%] | Reduction of neointima formation (vs control, procedure similar to Example 3) [%]
O=P(O)(O)O[C@@H]1[C@H](OP(=O)(O)O)[C@H](O)[C@@H](O)[C@H](O)[C@H]1OP(=O)(O)O [IP3, D-myo-inositol-1,2,6-trisphosphate] | 57 | –
O=C(Nc1ccccc1)O[C@@H]1[C@@H](OC(=O)Nc2ccccc2)[C@@H](OP(=O)(O)O)[C@@H](OP(=O)(O)O)[C@H](OP(=O)(O)O)[C@H]1OC(=O)Nc1ccccc1 [PP 11-201, D-3,4,5-tri-O-(phenylcarbamoyl) myo-inositol-1,2,6-trisphosphate] | – | 62

— patent US20040235799A1, “Use of a compound with a negatively charged domain of radicals for the treatment of restenosis” (priority 2001, published 2004)
